# In patent US20240299698A1, “PREVENTION AND TREATMENT OF POST-OPERATIVE COGNITIVE DYSFUNCTION (POCD)” (Noetix Pharma LLC, priority 2022, published 2024):
# Key:
# [1] = test system: hippocampal microglial cells; assay: Evaluation of hippocampal microglial cell morphology (Iba1 immunohistochemistry); type: in vivo, Male C57BI/6 mice; conditions: for Iba1-positive microglial cell morphology (activated characteristics), rank 0-2: 8 days post-surgery, n=8
# Description: A subset of mice was evaluated to compare acute and chronic treatment of pirfenidone paradigms against Normal Control and Disease Control tissues (n=8/treatment group). A neuroinflammation marker, ionizing calcium binding adaptor molecule 1 (Iba1), was investigated in the hippocampus as an indication of the level of inflammatory response. The hippocampus is particularly vulnerable to both acute and chronic stressors, including those triggered by physical trauma.
# The right hemispheres of a subsection of study mice were evaluated via fluorescent IHC analysis to investigate the impact of laparotomy and drug intervention on hippocampal inflammatory mechanisms. Iba1 was assessed as a marker of neuroinflammation because it is indicative of inflammatory response in the central nervous system.
# Cryoprotected hemispheres were blocked in OCT compound (Thermofisher) and stored at −80° C. until sectioning. […]
# • To obtain micrographs for quantification • Fluorescent microscope (Zeiss Axio Observer Z1) Apotome.2 imaging system Zeiss imaging software (Zen 2 Blue edition) • Settings were manually selected to allow visualization of signal on all sections (signal must be visible on low intensity sections but must not be overexposed on high intensity sections). […]
# Ionized calcium-binding adapter molecule 1 (Iba1) is a microglia-specific calcium-binding protein that participates in phagocytosis in activated microglia. […] Iba1 is thus a sensitive marker of inflammation and is quantified by measuring the intensity of the Iba1 positive signal. […]
# Hippocampal tissue from the right hemispheres was evaluated for functional cell morphology using non-parametric rank ordering of tissue as follows: • 0=normal morphology (ramified, mostly ramified) • 1=moderate morphology (ramified-activated) • 2=activated morphology (activated, activated ameboid, ameboid)
# [2] = Body weight monitoring after surgery; type: in vivo, Male C57BI/6 mice; conditions: Acute and Chronic dose groups vs controls
# Description: Mice were weighed 24 hours after arrival, weekly prior to the initiation of pirfenidone administration, and then daily throughout the remainder of the study. Post-induction, animals were assessed daily to monitor body condition, pain response, and general recovery parameters. • Test System: Male C57BI/6 mice • Number of Animals/Group: 12 animals per group (total of 48 mice) • Age: Cohort 1: 12 weeks at arrival • Cohort 2: 10 weeks at arrival • Model Induction: Performed at 14 weeks of age • Weight: 31.6±0.42 SEM g at time of surgery • Allocation: Animals were pseudo-randomly assigned to treatment groups balanced for weight • Health inspection: A health inspection was performed by a clinical veterinarian prior to the commencement of the study.
# Mice were weighed 24 hours after arrival, weekly prior to the initiation of Test Article administration, and then daily throughout the remainder of the study.
compound,measurement,setting,value
"Cc1ccc(=O)n(-c2ccccc2)c1 [pirfenidone, 5-methyl-1-phenyl-2-(1H)-pyridone]","Iba1-positive microglial cell morphology (activated characteristics), rank 0-2",[1]; Acute,reduced this microglial activation
same,"Iba1-positive microglial cell morphology (activated characteristics), rank 0-2",[1]; Chronic,reduced this microglial activation
same,microglial activation in the hippocampus (summary),"[1]; summary statement, regimen not distinguished",reduced microglial activation in the hippocampus
same,weight loss at 24 hours post-surgery,[2],did not differ between groups
